Laboratory results from patent US20250376471A1, “CRYSTALLINE FORMS OF 2-[3-[4-AMINO-3-(2-FLUORO-4-PHENOXY-PHENYL)PYRAZOLO[3,4-D]PYRIMIDIN-1-YL]PIPERIDINE-1-CARBONYL]-4-METHYL-4-[4-(OXETAN-3-YL)PIPERAZIN-1-YL]PENT-2-ENENITRILE” (Principia Biopharma Inc., priority 2022, published 2025).
In brackets after ≈: the same amount, converted by molar mass. Several values for one entry are separate records, joined by “and”; a condition that tells them apart may be missing. Equal values may be shown once.

How the values were obtained:
[1] = Visual solubility of Form B crystal in common solvents at RT; type: physicochemical; details: organic solvent or mixture, thermodynamic from solid, visually estimated
Excerpt: The solubility was visually estimated in 12 common solvents at RT.

[2] = Comparative solubility in aqueous buffers (HPLC); type: physicochemical
Procedure: (§1) Using the stock solution, a dilution series for the purpose of HPLC quantitation was generated according to the following Table 8.
Next, the second step of this modified procedure involved adding a buffer (5 mL) to the vial under stirring followed by measuring the pH of the resulting suspension. In case the pH drifted by more than 0.1 unit from the target pH, 10 μL aliquots of 1M NaOH (aq.) were used to readjust the pH to the original value. […] As above in 9.2, the samples were filtered through a 0.2 μm filter, and the resulting solution was appropriately diluted to fall within the calibrated concentration range on HPLC. The sampling was repeated in an identical fashion after 3 hr and 24 hr and after the last sample was taken, the pH was recorded again. The dissolved sample was determined by converting the recorded area on HPLC to concentration in mg/mL using the established calibration equation.

[3] = Comparative grinding study (XRPD pre- and post-grinding); type: physicochemical; details: 40 mg ground at 30 Hz for 30 min with steel ball bearing
Procedure: The samples were each ground at 30 Hz for 30 min, then reanalyzed by XRPD.

[4] = Comparative solubility in Milli-Q purified water (HPLC); details: for pH: water, 24 hr
Procedure: as §1
First, a quantity of test sample was placed in a 2-dram vial equipped with stir bar. […] In the second step, Milli-Q water was added to the vial under stirring followed by measuring the pH of the resulting suspension/solution. […] In each case, the sample was filtered through a 0.2 μm filter. The resulting solution was appropriately diluted to fall within the calibrated concentration range on HPLC. The sampling was repeated in identical fashion after 3 hr and 24 hr. After the last sample was taken, the pH was recorded again. The dissolved sample was determined by converting the recorded area on HPLC to concentration in mg/mL using the established calibration equation.

[5] = Hygroscopicity (GVS analysis) and solid-state properties of methyl paraben co-crystal; type: physicochemical
Excerpt: The co-crystal is also readily prepared from anti-solvent addition and generates a good yield.

[6] = Compression study (XRPD pre- and post-compression); type: physicochemical; details: 6 mm recess disc, 100 kg of pressure for 2 min
Procedure: The methyl paraben co-crystalline form of Compound (I) after drying in a vacuum oven was compressed into a 6 mm recess disc under 100 kg of pressure for 2 min.

[7] = Solubility of methyl paraben co-crystal in pH 4.5 and 6.8 buffer (HPLC); type: physicochemical
Procedure: The sample was suspended in 1.5 mL media for a maximum anticipated concentration of Ca. […] The resulting suspensions were then shaken at 25° C./750 rpm for 24 hr. After 1 hr, 3 hr and 24 hr of equilibration, 0.5 mL of sample was aliquoted, the appearance was noted, and the pH of the saturated solution was measured. Samples were then centrifuged at 13,400 rpm for 2 min. Supernatant was used for HPLC analysis. Samples suspended in pH 4.5 buffer were diluted 1:1 (1- and 3-hr samples) and 1:8 (24 hr samples) with pH 4.5 buffer. Samples suspended in pH 6.8 buffer were analyzed undiluted. […] Different volumes of the standard diluted and undiluted sample solutions were injected.

[8] = Static storage analysis (XRPD pre- and post-storage); type: physicochemical; details: stored for one week at 25° C. and 40° C.
Procedure: Samples of methyl paraben co-crystalline form of Compound (I) (Example 10), after drying in a vacuum oven were stored for one week at 25° C. and 40° C.

[9] = pH 4.5 buffer, 1 hour, 25° C., single sample

CC(C)(C=C(C#N)C(=O)N1CCCC(n2nc(-c3ccc(Oc4ccccc4)cc3F)c3c(N)ncnc32)C1)N1CCN(C2COC2)CC1 (centres unmarked) [Compound (I) Form B, 2-[3-[4-amino-3-(2-fluoro-4-phenoxy-phenyl)pyrazolo[3,4-d]pyrimidin-1-yl]piperidine-1-carbonyl]-4-methyl-4-[4-(oxetan-3-yl)piperazin-1-yl]pent-2-enenitrile]
solubility at 15 min ([1]; 4-Methyl-2-pentanone (MIBK)): 20 to 100 mg/mL (≈ 30 to 150 mM)
solubility at 15 min ([1]; Acetone): > 100 mg/mL
solubility at 15 min ([1]; Acetonitrile (MeCN)): 20 to 100 mg/mL (≈ 30 to 150 mM)
solubility at 15 min ([1]; Cyclohexane): < 20 mg/mL
solubility at 15 min ([1]; Cyclohexanone): 20 to 100 mg/mL (≈ 30 to 150 mM)
solubility at 15 min ([1]; Dichloromethane (DCM)): > 100 mg/mL
solubility at 15 min ([1]; Dimethyl carbonate (DMC)): 20 to 100 mg/mL (≈ 30 to 150 mM)
solubility at 15 min ([1]; Ethyl acetate (EtOAc)): 20 to 100 mg/mL (≈ 30 to 150 mM)
solubility at 15 min ([1]; Isopropyl ether (IPE)): < 20 mg/mL
solubility at 15 min ([1]; Tetrahydrofuran (THF)): > 100 mg/mL
solubility at 15 min ([1]; Toluene): < 20 mg/mL
solubility at 15 min ([1]; t-Butyl Methyl Ether (MTBE)): < 20 mg/mL
pH ([2]; 50 mM Acetate, 0 hr): 4.5
pH ([2]; 50 mM Acetate, 24 hr): 4.5
solubility at 1 h ([2]; 50 mM acetate buffer, pH 4.5, aqueous buffer, thermodynamic from solid, 50 mM Acetate, 1 hr): 1700 µg/mL (≈ 2.55 mM)
solid form after grinding (XRPD) ([3]; listed as Form B crystalline form of Compound (I)): became amorphous after grinding
pH [4]: 7.8

CC(C)(C=C(C#N)C(=O)N1CCCC(n2nc(-c3ccc(Oc4ccccc4)cc3F)c3c(N)ncnc32)C1)N1CCN(C2COC2)CC1 (centres unmarked) [Compound (I) amorphous, 2-[3-[4-amino-3-(2-fluoro-4-phenoxy-phenyl)pyrazolo[3,4-d]pyrimidin-1-yl]piperidine-1-carbonyl]-4-methyl-4-[4-(oxetan-3-yl)piperazin-1-yl]pent-2-enenitrile]
pH ([2]; 50 mM Acetate, 0 hr): 4.5
pH ([2]; 50 mM Acetate, 24 hr): 4.5
pH [4]: 8.3

CC(C)(C=C(C#N)C(=O)N1CCCC(n2nc(-c3ccc(Oc4ccccc4)cc3F)c3c(N)ncnc32)C1)N1CCN(C2COC2)CC1.Cl (centres unmarked) [HCl salt, 2-[3-[4-amino-3-(2-fluoro-4-phenoxy-phenyl)pyrazolo[3,4-d]pyrimidin-1-yl]piperidine-1-carbonyl]-4-methyl-4-[4-(oxetan-3-yl)piperazin-1-yl]pent-2-enenitrile: HCl crystalline salt Form A]
pH ([2]; 50 mM Acetate, 0 hr): 4.5
pH ([2]; 50 mM Acetate, 24 hr): 4.4
solubility as compared with amorphous form and Compound (I) Form B ([4]; Example 9, FIGS. 24A-C, water and buffers): significantly enhanced solubility
pH [4]: 4.0

CC(C)(C=C(C#N)C(=O)N1CCCC(n2nc(-c3ccc(Oc4ccccc4)cc3F)c3c(N)ncnc32)C1)N1CCN(C2COC2)CC1.O=C(O)/C=C\C(=O)O (centres unmarked) [Maleate, 2-[3-[4-amino-3-(2-fluoro-4-phenoxy-phenyl)pyrazolo[3,4-d]pyrimidin-1-yl]piperidine-1-carbonyl]-4-methyl-4-[4-(oxetan-3-yl)piperazin-1-yl]pent-2-enenitrile: maleate crystalline salt Form A]
pH ([2]; 50 mM Acetate, 0 hr): 4.5
pH ([2]; 50 mM Acetate, 24 hr): 4.0
pH ([2]; 100 mM Acetate, 0 hr): 4.5
pH ([2]; 100 mM Acetate, 24 hr): 4.5
pH [4]: 3.5

CC(C)(C=C(C#N)C(=O)N1CCCC(n2nc(-c3ccc(Oc4ccccc4)cc3F)c3c(N)ncnc32)C1)N1CCN(C2COC2)CC1 (centres unmarked) [Methyl paraben co-crystal, 2-[3-[4-amino-3-(2-fluoro-4-phenoxy-phenyl)pyrazolo[3,4-d]pyrimidin-1-yl]piperidine-1-carbonyl]-4-methyl-4-[4-(oxetan-3-yl)piperazin-1-yl]pent-2-enenitrile]
water absorbed (hygroscopicity) ([5]; between 0 and 90% RH): 2.3 % w/w
XRPD pattern after GVS analysis, static storage conditions, grinding and compression studies, and kinetic solubility analysis ([5]; solid form stability): remained the same XRPD pattern
solid form after drying and compression (XRPD) [6]: retained its co-crystalline structure pattern with only a limited reduction in overall crystallinity
solid form after grinding (XRPD) [3]: retained its co-crystalline structure pattern with only a limited reduction in overall crystallinity
solubility at 3 h ([7]; pH 4.5 buffer, 25 °C, pH 4.5, aqueous buffer, thermodynamic from solid, 3 hour, single sample): 980 µg/mL
solubility at 1 h ([7]; pH 4.5 buffer, 25 °C, pH 4.5, aqueous buffer, thermodynamic from solid, pH 4.5 buffer, 1 hour, 25° C., single sample, read-out: Solubility): 650 µg/mL
solubility at 1 h ([7]; pH 4.5 buffer, 25 °C, pH 4.5, aqueous buffer, thermodynamic from solid, pH 4.5 buffer, 1 hour, 25° C., read-out: Average Solubility): 650 µg/mL
Solubility [7, 9]: 0.64 mg/mL
pH [7, 9]: 4.6
pH ([7]; pH 4.5 buffer, 3 hour, 25° C., single sample): 4.7 and 4.6
pH ([7]; pH 4.5 buffer, 24 hour, 25° C., single sample): 4.7
pH ([7]; pH 6.8 buffer, 1 hour, 25° C., single sample): 6.8
pH ([7]; pH 6.8 buffer, 3 hour, 25° C., single sample): 6.8
pH ([7]; pH 6.8 buffer, 24 hour, 25° C., single sample): 6.9 and 6.8
XRPD pattern post-solubility analysis ([7]; solid form stability after solubility test): no change in the pattern
solid form after storage (XRPD) [8]: retained its crystalline structure

CC(C)(C=C(C#N)C(=O)N1CCCC(n2nc(-c3ccc(Oc4ccccc4)cc3F)c3c(N)ncnc32)C1)N1CCN(C2COC2)CC1.O=C(O)C(=O)O (centres unmarked) [Oxalate salt, 2-[3-[4-amino-3-(2-fluoro-4-phenoxy-phenyl)pyrazolo[3,4-d]pyrimidin-1-yl]piperidine-1-carbonyl]-4-methyl-4-[4-(oxetan-3-yl)piperazin-1-yl]pent-2-enenitrile: oxalate crystalline salt hydrate Form A]
pH ([2]; 50 mM Acetate, 0 hr): 4.5
pH ([2]; 50 mM Acetate, 24 hr): 4.27
pH ([2]; 100 mM Acetate, 0 hr): 4.5
pH ([2]; 100 mM Acetate, 24 hr): 4.5
pH [4]: 2.9
